Columns and labels:
A549 cells = test: intracellular ROS detection by DCFH-DA; format: cell-based, human; details: A549, 10, 20 and 50 nM, 12 h
Source text: The intrinsic mitochondrial pathway is one of the most well-studied mechanisms relevant to cell apoptosis. ROS accumulation and mitochondrial membrane potential (MMP) alteration play crucial roles in this pathway. In this study, a fluorescent dye including DCFH-DA and JC-1 was used to monitor the intracellular ROS and MMP, respectively.
Figure 5 ROS accumulation and MMP alteration induced by compound 14b. (A,B) The intracellular ROS detection by DCFH-DA after A549 cells treated with compound 14b at indicated concentrations for 12 h. (C,D) The detection of MMP monitored by JC-1 dye after A549 cells treated with compound 14b at the concentrations of 10, 20 and 50 nM for 12 h. […]
samples were fixed in ice-cold 70% ethanol overnight and removed with ice-cold PBS for three times. […] After the incubation, the prepared cell samples were immediately analyzed. Almost 10,000 events were detected by flow cytometry (Beckman Coulter, CytoFlex LX). The data regarding the number of cells in different phases of the cell cycle were or apoptotic cells were analyzed by […]
Caspase-3 activity was measured according to the manufacturer ’s instructions using a GreenNuc™ Caspase-3 assay kit for live cells (Beyotime, China). […] After incubation, the fluorescence intensity (excitation wavelength:
485 nm, emission wavelength: 515 nm) was recorded using a multifunctional microplate reader (Thermo Scientific, Varioskan LUX). […]

[1] = metabolic stability in human liver microsomes; format: in vitro ADME
Description: Metabolic stability is one of the most important properties in drug development. In this study, commercially available human liver microsomes were used to evaluate the metabolic stability of compound 14b. After incubation with human liver microsomes at 37 °C in vitro for an indicated time in a buffer solution containing a NADPH regenerating system, the residue of 14b was monitored by HPLC. CA-4 was used as the reference compound. […] As well known, a short half-life means a low bioavailability in vivo and is required for frequent administration with a high dose, which might result in drug accumulation and may produce related toxicity.

[2] = test system: HepG2 (human liver carcinoma cell line); test: CCK-8 antiproliferative assay, HepG2; format: cell-based; details: 48 h, read-out: IC50, Mean ± SE, HepG2
caspase 3 = caspase 3 activity evaluation; format: cell-based, human; details: A549, 10, 20 and 50 nM
Description: To further elucidate the mechanism of cell death caused by the cytotoxicity of compound 14b, the Hoechst 33342 fluorochrome was used to observe the nucleus morphology, Annexin V-FITC double staining was performed to distinguish the apoptotic cells, and the caspase 3 colorimetric assay kit was used to detect the activity of caspase 3. […] At the early stage of apoptosis, different types of cells turn phosphatidylserine (PS) out toward the cell surface, that is, the outside of the cell membrane, which can be selectively marked with Annexin V. Additionally, in the late stage of apoptosis, the integrity of cell membrane is lost and can be stained with PI. […] Finally, considering the activation of caspase 3 is a central event in the process of apoptosis, the activity of caspase 3 was also evaluated.
Figure 4 Induction of apoptosis by compound 14b. […] (B) The percentages of cells in each apoptosis quantitated by flow cytometry through Annexin V-FITC double staining analysis. […] (C) The caspase 3 activity detected by the caspase 3 colorimetric assay kit after A549 cells were treated with compound 14b at concentrations of 10, 20 and 50 nM for 24 h. […]
samples were fixed in ice-cold 70% ethanol overnight and removed with ice-cold PBS for three times. […] After the incubation, the prepared cell samples were immediately analyzed. […]

[3] = test system: five kinds of human cancer cell lines (A549, Caski, HepG2, C42B, MCF-7); test: CCK-8 assay, panel of five human cancer cell lines; format: cell-based; details: 48 h, read-out: IC50 values, range over five human cancer cell lines
[4] = test system: A549 (human non-small-cell-lung cancer cell line); test: CCK-8 antiproliferative assay, A549; format: cell-based; details: 48 h, read-out: IC50, Mean ± SE, A549

**Q.** With `COc1ccc(C(=O)c2ccc3c(ccn3C)c2)c2c1C=CC(C)(C)O2` [compound 14b, (5-methoxy-2,2-dimethyl-2H-chromen-8-yl)(1-methyl-1H-indol-5-yl)methanone] as the compound, how does the “level of ROS” value (A549 cells) read?
**A.** Its value is “significantly rose abruptly in a dose-dependent manner”.

**Q.** And the half-life [1]?
**A.** Its half-life is 3.3 h.

**Q.** And the “metabolic stability” value [1]?
**A.** The value was “relatively stable in the liver microsomes”.

**Q.** What about the Remaining% ([1]; 37 °C, NADPH regenerating system, 180 min) of the same compound?
**A.** Its Remaining% is 56.17%.

**Q.** What about the remaining at 0.5 h ([1]; human, liver microsomes, 37 °C, NADPH regenerating system, 30 min) of the same compound?
**A.** The remaining at 0.5 h was 96.2%.

**Q.** What about the remaining at 1 h ([1]; human, liver microsomes, 37 °C, NADPH regenerating system, 60 min) of the same compound?
**A.** Its remaining at 1 h is 91.4%.

**Q.** What about the remaining at 1.5 h ([1]; human, liver microsomes, 37 °C, NADPH regenerating system, 90 min) of the same compound?
**A.** The remaining at 1.5 h was 84.1%.

**Q.** What about the remaining at 2 h ([1]; human, liver microsomes, 37 °C, NADPH regenerating system, 120 min) of the same compound?
**A.** Its remaining at 2 h is 74.5%.

**Q.** What about the remaining at 2.5 h ([1]; human, liver microsomes, 37 °C, NADPH regenerating system, 150 min) of the same compound?
**A.** Its remaining at 2.5 h is 67.8%.

**Q.** What about the remaining at 3 h ([1]; human, liver microsomes, 37 °C, NADPH regenerating system, 180 min) of the same compound?
**A.** The remaining at 3 h was 50.6%.

**Q.** What about the remaining at 4 h ([1]; human, liver microsomes, 37 °C, NADPH regenerating system, 240 min) of the same compound?
**A.** Its remaining at 4 h is 43.4%.

**Q.** What about the IC50 [2] of the same compound?
**A.** Its IC50 is 74 ± 13 nM.

**Q.** What about the “activity of caspase 3” value (caspase 3) of the same compound?
**A.** Its value is “significantly activated and increased in a dose- and time-dependent manner”.

**Q.** And the IC50 [3]?
**A.** The IC50 was 22 to 74 nM.

**Q.** What about the IC50 [4] of the same compound?
**A.** The IC50 was 22 ± 2 nM.

Reference: paper PMC9921564, “Novel Indole-Containing Hybrids Derived from Millepachine: Synthesis, Biological Evaluation and Antitumor Mechanism Study” (Molecules, 2023)
